These results are taken from the RepoRT retention time repository (doi:10.1016/j.scitotenv.2015.08.078).

Structures are written as SMILES.

The series can be described thus: RP, Waters ACQUITY UPLC BEH C18, 100 × 2.1 mm, 1.7 µm, 0.3 mL/min, estimated dead time 0.73 min; A: water + 0.1% formic acid, pH 3; B: methanol + 0.1% formic acid, pH 3; gradient (min/%B) 0/10 14/90 16/90 18/10. Conditions: stereoisomer not certain.
Regarding `CCOP(=S)(OCC)Oc1nc(Cl)n(C(C)C)n1` [Isazophos], the LC retention time is 10.8 min.
Next, `N#Cc1nn(-c2c(Cl)cc(C(F)(F)F)cc2Cl)c(N)c1S(=O)C(F)(F)F` (stereo not drawn) [Fipronil]: 11.3 min.
Next, `Cc1cc(NS(=O)(=O)c2ccc(N)cc2)no1` [Sulfamethoxazole]: 3.91 min.
Next, `CC(=O)Oc1ccc2c3c1OC1C(OC(C)=O)C=CC4C(C2)N(C)CCC341` (stereo not drawn) [Heroin]: 5.32 min; `CCNc1nc(NC(C)(C)C)nc(OC)n1` [Terbumeton]: 8.02 min.
In the case of `CCN(CC)C(=O)C(C)Oc1cccc2ccccc12` (stereo not drawn) [Napropamide], the LC retention time was 11 min.
Next, `Cn1c([N+](=O)[O-])cnc1COC(N)=O` [Ronidazole]: 1.79 min; `CC1c2cccc(O)c2C(O)=C2C(=O)C3(O)C(O)=C(C(N)=O)C(=O)C(N(C)C)C3C(O)C21` (stereo not drawn) [Doxycycline]: 7.42 min; `COC(=O)c1ccccc1S(=O)(=O)NC(=O)N(C)c1nc(C)nc(OC)n1` [Tribenuron methyl]: 7.52 min.
Next, `COC(=O)C(C)N(C(=O)Cc1ccccc1)c1c(C)cccc1C` (stereo not drawn) [Benalaxyl]: 11.7 min; `CCCC(Cn1cncn1)c1ccc(Cl)cc1Cl` (stereo not drawn) [Penconazole]: 11.6 min.
Next, `CCCCC(C)C(OC(=O)CC(CC(=O)O)C(=O)O)C(CC(C)CC(O)CCCCC(O)CC(O)C(C)N)OC(=O)CC(CC(=O)O)C(=O)O` (stereo not drawn) [Fumonisin B1]: 9.48 min; `CC(C)(C)N(NC(=O)c1ccc(Cl)cc1)C(=O)c1ccccc1` [Halofenozide]: 9.91 min; `COCC(C)N(C(=O)CCl)c1c(C)csc1C` (stereo not drawn) [Dimethenamid]: 10.1 min.
Turning to `CCCCNC(=O)NS(=O)(=O)c1ccc(C)cc1` [Tolbutamide], the LC retention time is 8.33 min.
Next, `CCCC(=NOCC)C1C(=O)CC(CC(C)SCC)CC1=O` (stereo not drawn) [Sethoxydim]: 11.8 min; `CCn1cc(C(=O)O)c(=O)c2cc(F)c(N3CCNCC3)cc21` [Norfloxacin]: 4.27 min.
Consider `CCOC(=O)NCCOc1ccc(Oc2ccccc2)cc1` [Fenoxycarb], for which the LC retention time is 12.4 min.
Take `Clc1cccc(N2CCNCC2)c1` [mCCP]: the LC retention time was 5.23 min.
Next, `CCC(CC)Nc1c([N+](=O)[O-])cc(C)c(C)c1[N+](=O)[O-]` [Pendimethalin]: 14.2 min; `Cc1c(N)c(=O)n(-c2ccccc2)n1C` [4-amino-antipyrine]: 2.92 min.
Next, `CNC(=O)c1cc(Cl)cc(C)c1NC(=O)c1cc(Br)nn1-c1ncccc1Cl` [Chlorantraniliprole]: 10.4 min; `CCOCN(C(=O)CCl)c1c(C)cccc1CC` [Acetochlor]: 11.1 min.
Turning to `COCC(=O)N(c1c(C)cccc1C)N1CCOC1=O` [Oxadixyl], the LC retention time is 6.71 min.
Next, `CCOP(=O)(SC(C)CC)N1CCSC1=O` (stereo not drawn) [Fosthiazate]: 8.33 min; `COC(=O)Nc1nc2ccccc2[nH]1` [Carbendazim]: 3.42 min.
Next, `CC(C)c1cc(Oc2ccccc2)cc(C(C)C)c1NC(=S)NC(C)(C)C` [Diafenthiuron]: 13.7 min.
Next, `CCOP(=S)(OCC)SCn1nnc2ccccc2c1=O` [Azinphos-ethyl]: 10.8 min; `CON=C(C(=O)OC)c1ccccc1COc1ccccc1C` [Kresoxim-methyl]: 11.7 min; `CCOCCOC(=O)C(C)Oc1ccc(Oc2ncc(C(F)(F)F)cc2Cl)cc1` (stereo not drawn) [Haloxyfop-2-ethoxyethyl]: 13.1 min.
Take `Cc1c(NC=O)c(=O)n(-c2ccccc2)n1C` [4-formylamino-Antipyrine]: the LC retention time is 3.78 min.
Next, `COc1nn(CSP(=S)(OC)OC)c(=O)s1` [Methidathion]: 9.91 min.
Next, `C=CCOC(Cn1ccnc1)c1ccc(Cl)cc1Cl` (stereo not drawn) [Imazalil]: 9.14 min; `CC1CC2C(C(O)CC3(C)C2CCC3(O)C(=O)CO)C2(C)C=CC(=O)C=C12` (stereo not drawn) [6a-Methylprednisolone]: 9.42 min; `O=C(O)c1ccccc1C(=O)Nc1cccc2ccccc12` [Naptalam]: 6.59 min.
Next, `CNC(C)Cc1ccc2c(c1)OCO2` (stereo not drawn) [MDMA]: 3.79 min; `Nc1ccc(S(=O)(=O)Nc2nccs2)cc1` [Sulfathiazole]: 2.26 min; `O=C(NC(=O)c1c(F)cccc1F)Nc1ccc(Cl)cc1` [Diflubenzuron]: 11.2 min.
In the case of `CCOC(=O)C1C(OC(=O)c2ccccc2)CC2CCC1N2C` (stereo not drawn) [Cocaethylene], the LC retention time is 6.53 min.
Next, `COCC1OC(=O)c2coc3c2C1(C)C1=C(C3=O)C2CCC(=O)C2(C)CC1OC(C)=O` (stereo not drawn) [Wortmannin]: 7.75 min; `CC(C)N(C(=O)CCl)c1ccccc1` [Propachlor]: 8.99 min; `CNC(=O)Oc1cc(C)cc(C(C)C)c1` [Promecarb]: 10.3 min.
With `Nc1c(Cl)c(F)nc(OCC(=O)O)c1Cl` [Fluroxypyr], the LC retention time is 7.71 min.
Regarding `Cc1cc(C)nc(NC(=O)NS(=O)(=O)c2ccccc2C(=O)OC2COC2)n1` [Oxasulfuron], the LC retention time was 6.3 min.
In the case of `CNC1(c2ccccc2Cl)CCCCC1=O` (stereo not drawn) [Ketamine], the LC retention time is 4.88 min.
On to `CC=C(C(=CC)c1ccc(O)cc1)c1ccc(O)cc1` [Dienestrol], for which the LC retention time is 11.1 min.
On to `CC(C)N(C(=O)SCC(Cl)=C(Cl)Cl)C(C)C` [Tri-allate], for which the LC retention time is 13.3 min.
Next, `CC(C1CC1)C(O)(Cn1cncn1)c1ccc(Cl)cc1` (stereo not drawn) [Cyproconazole I]: 10.5 min.
Next, `COc1cc2c(c3oc(=O)c4c(c13)CCC4=O)C1C=COC1O2` (stereo not drawn) [Aflatoxin B1]: 7.97 min; `O=C1CN=C(c2ccccc2)c2cc(Cl)ccc2N1` [Nordiazepam]: 10.5 min; `CCC1OC(=O)C(C)C(OC2CC(C)(OC)C(O)C(C)O2)C(C)C(OC2OC(C)CC(N(C)C)C2O)C(C)(O)CC(C)C(=NOCOCCOC)C(C)C(O)C1(C)O` (stereo not drawn) [Roxithromycin]: 10.7 min.
Next, `CCS(=O)(=O)c1cccnc1S(=O)(=O)NC(=O)Nc1nc(OC)cc(OC)n1` [Rimsulfuron]: 5.84 min; `COP(=O)(OC)Oc1ccc(SC)c(C)c1` [Fenthion oxon]: 9.48 min.
Take `O=C1CCc2cccc3c2N1CC3` [Pyroquilon]: the LC retention time is 7.09 min.
Next, `O=C1CN=C(c2ccccc2F)c2cc(Cl)ccc2N1` [Desalkyl-flurazepam]: 10 min; `Clc1ccc(C2(Cn3cncn3)OCCO2)c(Cl)c1` [Azaconazole]: 9.01 min; `CCC(C)(C)NCC(O)c1cc(Cl)c(N)c(C(F)(F)F)c1` (stereo not drawn) [Mapenterol]: 7.01 min.
Next, `CNC(C)C(=O)c1ccccc1` (stereo not drawn) [Methcathinone]: 2.95 min; `CC1Cc2c(Cl)cc(C(=O)NC(Cc3ccccc3)C(=O)O)c(O)c2C(=O)O1` (stereo not drawn) [Ochratoxin A]: 9.15 min; `CCOC(=O)C(C)Oc1ccc(Oc2nc3ccc(Cl)cc3o2)cc1` (stereo not drawn) [Fenoxaprop-ethyl]: 12.7 min.
Next, `C=C(C)C1(O)OC(=O)C=C1OC` (stereo not drawn) [Penicillic acid]: 3.78 min; `COc1ccc(NC(=O)N(C)C)cc1Cl` [Metoxuron]: 6.3 min.
On to `CCON=C(OC(=O)c1ccccc1)c1c(OC)ccc(Cl)c1OC` [Benzoximate], for which the LC retention time is 12.1 min.
Next, `CCCOP(=S)(OCCC)SCC(=O)N1CCCCC1C` (stereo not drawn) [Piperophos]: 12.3 min; `COC(=O)C(C)N(C(=O)c1ccccc1)c1ccc(F)c(Cl)c1` (stereo not drawn) [Flamprop-methyl]: 10.7 min; `CCOP(=S)(OCC)Oc1cc(C)nc(N(CC)CC)n1` [Pirimiphos-ethyl]: 13 min.
Next, `C#CC(C)(C)NC(=O)c1cc(Cl)cc(Cl)c1` [Propyzamide]: 10.3 min; `COC(=O)Nc1nc2ccc(S(=O)c3ccccc3)cc2[nH]1` (stereo not drawn) [Oxfendazole]: 7.31 min.
Next, `CON=C1CC2(CC3CC(CC=C(C)CC(C)C=CC=C4COC5C(O)C(C)=CC(C(=O)O3)C45O)O2)OC(C(C)=CC(C)C)C1C` (stereo not drawn) [Moxidectin]: 15.8 min; `CC1COc2c(N3CCN(C)CC3)c(F)cc3c(=O)c(C(=O)O)cn1c23` (stereo not drawn) [Ofloxacin]: 4.08 min; `COCc1cnc(C2=NC(C)(C(C)C)C(=O)N2)c(C(=O)O)c1` (stereo not drawn) [Imazamox]: 3.21 min.
With `CCCCC(O)(Cn1cncn1)c1ccc(Cl)cc1Cl` (stereo not drawn) [Hexaconazole], the LC retention time is 12 min.
Next, `COc1cc2c(c3c1C1CCC(=O)C1C(=O)O3)C1CCOC1O2` (stereo not drawn) [Aflatoxin B2]: 7.55 min; `COP(=O)(NC(C)=O)SC` (stereo not drawn) [Acephate]: 1.45 min.
Next, `Cn1cc(-c2ccccc2)c(=O)c(-c2cccc(C(F)(F)F)c2)c1` [Fluridone]: 9.63 min; `OC(c1ccc(Cl)cc1)(c1cncnc1)c1ccccc1Cl` (stereo not drawn) [Fenarimol]: 11.6 min.
Next, `CCCC1CC(C(=O)NC(C(C)O)C2OC(SC)C(O)C(O)C2O)N(C)C1` (stereo not drawn) [Lincomycin]: 3.56 min; `CC(=NC#N)N(C)Cc1ccc(Cl)nc1` [Acetamiprid]: 4.99 min.
